Data on one substance can be found in patent US20250352524A1, “PREVENTION OF METASTATIC OUTGROWTH USING TEAD INHIBITORS” (Georgetown University, priority 2024, published 2025).

In one test the test system is 4T1 cells. Description: 4T1 cells injected into tail vein of BALB/c mice, lung metastasis and T-cell profiling. Type of test: in vivo. How it is done: There was no difference in the primary tumor size between treatment groups nor the size of recurrent tumors at 6 weeks (FIG. 9, Panel B and FIG. 8, Panel C). […] To investigate tissue specific effects, gene expression changes between treatment groups in lung and tumor tissues were analyzed by RNA-sequencing. […] To reduce the impact of TEAD inhibition on cancer cell intrinsic function such as dissemination and invasion, 4T1, a triple negative mouse mammary carcinoma cell line (Pulaski & Ostrand-Rosenberg, 2000), was injected into the tail vein of BALB/c mice that directly seed into the lung tissue. A reduction in lung metastases, as well as the suppression of inflammatory pathways, were observed (FIG. 9, Panels E and F, and FIG. 8, Panel F).
To determine early changes in the T-cell population, lung and spleen tissues of BALB/c mice that were intravenously injected with 4T1 were processed and analyzed by flow cytometry 10 days post inoculation (FIG. 9, Panel E). […] M1-like macrophages and IL12 signaling play a critical role in the crosstalk between macrophages and T-cells triggering their proliferation and differentiation of T-cell subsets that can eliminate tumor cells unlike the pro-tumor M2-like macrophages (Guerriero, 2019; Oishi et al., 2016; Shao et al., 2023). Thus, the interplay between macrophage and T-cells after iTEAD treatment is likely to play a role in the increase in CD8+ T-cell and Th1 CD4+ cell populations in the lungs.
Formalin-fixed, paraffin embedded (FFPE) lung tissue sections were stained with hematoxylin and eosin. Immunohistochemistry staining was performed on FFPE tumor and lung tissue sections. Slides were deparaffinized in xylene and rehydrated following a series of ethanol washes. Heat-induced antigen retrieval was then performed by placing slides in warmed sodium citrate buffer (pH 6.0) (Invitrogen, 005000) in a pre-heated steamer for 20 minutes. Slides were cooled at room temperature for an additional 20 minutes, prior to quenching endogenous peroxidase activity using 3% hydrogen peroxide buffer (Fisher, BP2633500) for 10 minutes. Next, slides were incubated overnight at 4° C. with either anti-CD8 (Cell Signaling Technology, #98941), anti-CD68 (Abcam, ab303565), anti-CD206 (Cell Signaling Technology, #24595), or anti-F480 (Cell Signaling Technology, #70076). Following PBS washes, the slides are then stained with a biotinylated secondary antibody using the VECTASTAIN Elite ABC-HRP Kit according to the user's manual (Vector Laboratories, PK-6101). Positive brown staining was produced by applying ImmPACT DAB EqV Substrate Kit (Vector Laboratories, SK-4103) to the slides, which were then counterstained with hematoxylin (Sigma, MHS16). Images were captured using the Olympus BX40 microscope, and positive staining was quantified manually. Immunofluorescent staining was performed on lung tissue sections. Slides were baked at 60°, deparaffinized in xylene, rehydrated, washed in DI water and incubated with 10% neutral buffered formalin (NBF) for an additional 20 minutes to increase tissue-slide retention. Epitope retrieval/microwave treatment (MWT) for all antibodies was performed by boiling slides in Antigen Retrieval buffer 6 (AR6 pH6, Akoya AR6001KT). Protein blocking is performed using antibody diluent/blocking buffer (Akoya, ARD1001EA) for 10 minutes at room temperature. […] Slides were scanned at 10× magnification using the Vectra 3.0 Automated Quantitative Pathology Imaging System (PerkinElmer/Akoya). […]

In a further test the test system is E0771 cells. Description: Real Time Cell Analysis, proliferation of E0771 cells. Format: cell-based, mouse. The note with it: increasing doses of VT107, cell index. The method, then: E0771 cells were injected into the mammary fat pad of C57BL/6 mice (Johnstone et al., 2015). When primary tumors became palpable at 3 weeks, mice were treated daily with VT107 or vehicle control. Mice weights were monitored throughout treatment (FIG. 8, Panel B). Primary tumors were surgically resected at week 4 and mice were euthanized at week 6 to inspect lungs for metastases (FIG. 9, Panel A)
Cell analysis was done using E-plates from xCELLigence, (Agilent, #5469830001) according to the manufacturer's protocol. For cell cytotoxicity, cancer cells (10,000-25,000 cells per well) were seeded and allowed to attach for 1-2 hours prior to the addition of immune cells and/or drug treatments. For cell proliferation, cancer cells were seeded at 5,000-10,000 cells per well with incremental doses of drug treatments or DMSO as a vehicle control. Cell index was measured by changes in electric impedance at 15 min intervals. TEAD inhibitors were obtained from Vivace therapeutics.

For test [1], the system named is DCIS and DCIS-Δ4 mixed 3D spheres. Nature of the test: Invasion of DCIS and DCIS-Δ4 mixed 3D spheres in collagen:matrigel mix. Type of test: cell-based, human. The method, then:
To determine iTEAD effect on lung immune microenvironment at steady state, naïve C57/BL6 mice were treated with iTEAD. […] In the absence of cancer cells in these naïve mice, no change in CD8+ T-cells was observed between treatment groups. […] On the cancer cell front, TEAD inhibition had no effect on proliferation yet reduced migration and 3D spheroid collective invasion of breast cancer cells in vitro.

Regarding VT107, the “inflammatory pathways in lungs” value in the test with 4T1 cells (30 mg/kg VT107 daily) is given as “suppression”. The lung metastases result with 4T1 cells (30 mg/kg VT107 daily by oral gavage vs vehicle) is recorded as “reduction”. Besides, in the test with 4T1 cells (IHC, week 2), the “T-bet staining in the lungs” value was “significant increase”. Besides, the “overall abundance of CD4+ and CD8+ T-cell populations” value with 4T1 cells (flow cytometry 10 days post inoculation) is “no difference”. For the same substance, the “helper 1 T-cell (Th1) population” value with 4T1 cells (flow cytometry 10 days post inoculation, lung) is given as “increased”. Also, in the test on E0771 cells, the “proliferation of E0771 in vitro” value is “did not impact”. Besides, in test [1], the “migration of breast cancer cells in vitro” value is recorded as “reduced”. Also, the “3D spheroid collective invasion” value in test [1] (vs control) is on record as “reduced”.
